From article PMC6278378, “Virtual Screening, Biological Evaluation, and 3D-QSAR Studies of New HIV-1 Entry Inhibitors That Function via the CD4 Primary Receptor” (Molecules, 2018)
“Also recorded” adds a separate entry of the source. Peptide text beside a SMILES is read from it.

How the values were obtained:
CD4 = molecular target: T1, CD4 (Homo sapiens, UniProt P01730); assay: CD4 competitive binding assay (FITC anti-human CD4 antibody, SUP-T1 cells); conditions: for Inhibition at 100 μM (%) / inhibition at 100 µM: inhibition of anti-human CD4 antibody binding to SUP-T1 cells; for PInhibition (Experimental Data): transformed from % inhibition at 100 μM, presented as -ln
T1 construct: endogenous in cells; host or cells: SUP-T1 cells
Protocol: We chose CD4-expressing SUP-T1 cells to perform the competitive CD4 binding assay. Non-labeled anti-human CD4 antibody (RPA-T4 clone, BioLegend, San Diego, CA, USA) was used as a positive control.
The SUP-T1 cells were cultured in RPMI1640 medium supplemented with 10% (v/v) fetal bovine serum (FBS), 100 IU penicillin, 0.1 mg/mL streptomycin, and 2 mM L-glutamine. After collecting and washing twice with fluorescence activated cell sorting (FACS) buffer (0.5% BSA, 0.05% sodium azide in PBS) by centrifugation, SUP-T1 cells were seeded in a 96-well v-bottom plate at 5 × 10^5 cells/well. The supernatant was discarded by centrifugation and the cell pellet was resuspended with 50 μL various 2× concentrations of test compounds and 50 μL fluorescein isothiocyanate (FITC) labeled anti-human CD4 antibody (RPA-T4 clone, BioLegend, San Diego, CA, USA). The plate was incubated for 40 min on ice. After incubation, the cells were washed twice with FACS buffer by centrifugation, and then resuspended with the assay buffer. The FACS buffer was added at a volume of 50 μL per well. The fluorescence (485EX/528EM) was recorded using a Synergy II plate reader (BioTek Instruments, Inc., Winooski, VT, USA). Experimental data were generated in duplicate each time, and from at least three independent experiments. The mean values of fluorescence were normalized and expressed as a percentage of the control group values. Binding curves and IC50 values were calculated by GraphPad Prism 7 (GraphPad Software Inc., La Jolla, CA, USA) and presented as the mean ± SEM.

HIV-1 (NL4-3 strain) = assay: microbe, parasite or virus in culture; format: cell-based; conditions: Human immunodeficiency virus 1, NL43, PBMC; 0.1 μM, PBMCs; read-out: Inhibition of HIV-1 entry (intracellular p24)
Protocol: We also performed anti-HIV-1 entry assays to investigate the potential suppression by 3 of HIV-1 infection via its entry mechanism.
The Anti-HIV-1 entry assay was performed by measuring intercellular p24 antigen. Before the infection, PBMCs (2.5 × 10^6 cells/mL) were added into 96-well plates at 100 μL/well, then co-incubated with compounds of various concentrations for 2 h. PBMCs were then washed twice with PBS and infected with the NL4-3 strain of HIV-1 at an MOI of 0.02 for 2 h at 37 °C with 5% CO2 (CO2 incubator, Eppendorf, Hamburg, Germany). After two washes with PBS (1200 rpm, 20 °C, 5 min), the cells were re-suspended in 100 µL complete medium and incubated for 24 h. Subsequently, the PBMCs were washed and resuspended in 100 µL/well lysis buffer containing 1% protease inhibitor cocktail (Sigma-Aldrich, St. Louis, MO, USA). The intercellular p24 antigen was measured according to the protocol provided with the HIV-1 ELISA kit (PerkinElmer Inc. Waltham, MA, USA).

[1] = tested on: HIV-1 nucleocapsid-p7 protein (NC-p7); design: method as in PMID 12207905; conditions: cited from earlier work
CEM-GFP cell line = assay: CEM-GFP cell viability (CellTiter Blue); format: cell-based; conditions: highest concentration 25 µM
Text: Figure 3 The competitive CD4 binding assay results of analogs of 3 (A).
We also evaluated the anti-HIV-1 infection activity of 29 using the CEM-GFP reporter cell line.

HIV-1 NL4-3 strain = assay: Anti-HIV-1 infection assay (CEM-GFP reporter cells, GFP fluorescence); format: cell-based; conditions: Human immunodeficiency virus 1, NL43, HIV-1 NL4-3, 4-5 days
Text: We performed anti-HIV-1 infection and anti-HIV-1 entry assays by measuring GFP expression and intracellular p24 antigen level. For the anti-HIV-1 infection assays, the CEM-GFP reporter cell line was used, and HIV-1 infection induced a 10- to 1000-fold increase in the relative fluorescence of the cells.
The CEM-GFP cells were obtained from the NIH AIDS program (NIH AIDS Reagent Program, Division of AIDS, NIAID, NIH: CEM-GFP Cells from Dr. Jacques Corbeil) and cultured in RPMI 1640 medium containing 10% FBS, 1% penicillin-streptomycin (Life Technologies, Carlsbad, CA, USA), 1% 200 mM L-glutamine (Mediatech-VWR, Aurora, CO, USA), and 500 µg/mL G418 (BioPioneer Inc, San Diego, CA, USA). After collecting and counting, the CEM-GFP cells were infected with HIV-1 NL4-3 strain (MOI 0.01) at 37 °C for 2–3 h, cells were then washed twice with PBS, and 10^5 cells/well were seeded into a 96-well plate in the presence of different concentrations of test compounds. After culturing at 37 °C with 5% CO2 for 4 or 5 days, the GFP fluorescence (485EX/528EM) was measured using a Synergy II microplate reader (BioTek Instruments, Inc., Winooski, VT, USA).

HIV-1 = tested on: HIV-1; design: method as in PMID 12207905; conditions: cited from earlier work

Structure (SMILES)	Inhibition at 100 μM (%) (CD4)	PInhibition (Experimental Data) (CD4)	other results
Cc1cc(=O)c2cccc(CC(=O)O)c2o1 [Compound 26]	18.10	3.344	
c1cc(CN2CCCNCCNCCCNCC2)ccc1CN1CCCNCCNCCCNCC1 [AMD3100, reference compound]			inhibition at 0.1 µM (HIV-1 (NL4-3 strain)): 57.6%
CCCCC(=O)c1c(O)c2ccccc2oc1=O [Compound 18]		3.771	
CCCCCCCCCCCC(=O)c1c(O)c2ccccc2oc1=O [Compound 17]		3.774	
O=c1oc2c(cc1O)oc(=O)c1cc(O)c(O)c(O)c12 [Compound 31]			inhibition at 100 µM (CD4): 16%
O=C(O)CCC(=O)c1ccc(Oc2ccccc2)cc1 [Compound 32]		3.400	
Nc1ccn([C@H]2O[C@H](CO)[C@@H]3[O][Sn]([c]4ccccc4)([c]4ccccc4)[O][C@H]32)c(=O)n1 [Compound 5]	33.09		
CSCCC(NC(=O)C(CC(C)C)NC(=O)CNC(=O)C(NC(=O)C(Cc1ccccc1)NC(=O)C(CCC(N)=O)NC(=O)C(CC(=O)O)NC(=O)C(CO)NC(=O)C(CCCCN)NC(=O)C1CCCN1C(=O)C(NC(=O)C(N)CC(=O)O)C(C)C)C(C)C)C(N)=O (stereo not drawn) [Compound 9] (H-DVPKSDQFVGLM-NH2; configuration not given here)	6.40	2.835	
Cc1cc2c(=O)cc(-c3ccccc3)oc2c(C(=O)O)c1C [Compound 27]		4.024	
Nc1ccc(S(=O)(=O)c2ccc(NCN3C(=O)NC(=O)C(=O)C3=O)cc2)cc1 [Compound 2]			inhibition at 100 µM (CD4): 36.9%
O=C(O)Cc1cccc2c(=O)cc(C3CCCCC3)oc12 [Compound 25]		3.541	
O=c1oc2cccc(O)c2c(O)c1Cc1ccccc1 [Compound 14]	8.47	2.966	
O=C(O)/C=C/c1c2ccc(=O)c(O)c-2oc2c(O)c(O)ccc12 [Compound 28]		4.566	
O=C(O)/C=C/c1c2ccc(=O)c(O)c-2oc2c(O)c(O)ccc12 [Compound 29]		4.763	IC50 (CD4; SUP-T1 cells, anti-human CD4 antibody competition): 14 µM; binding to NC-p7 [1]: bind; Cytotoxicity in CEM-GFP cell line (CEM-GFP cell line): complete lack of cytotoxicity effect; also recorded: no cytotoxicity; IC50 (HIV-1 NL4-3 strain): 2 µM; inhibition of HIV-1 infection (HIV-1): inhibit HIV-1 infection
Cn1c(=O)c2c(nc(NCCNc3nc4c(c(=O)n(C)c(=O)n4C)n3C)n2C)n(C)c1=O [Compound 1]			inhibition at 100 µM (CD4): 34.2%
N[C@@H](CSC1(c2ccc(Cl)cc2)c2ccccc2-c2ccccc21)C(=O)O [Compound 4]			inhibition at 100 µM (CD4): 22.6%
Cc1cc(=O)oc2cc(O)cc(O)c12 [Compound 6]	5.64	2.762	

More lines, main results first:

Inhibition at 100 μM (%) (CD4)	PInhibition (Experimental Data) (CD4)	Structure (SMILES)	other results
10.83	3.084	Cc1cc(=O)oc2c(O)c(O)ccc12 [Compound 11]	
	3.668	O=C(O)Cc1cc(=O)oc2cc(O)ccc12 [Compound 19]	
12.04	3.136	CCCCC(=O)c1c(O)ccc2c(C)cc(=O)oc12 [Compound 8]	
	3.874	O=C(/C=C/c1ccccc1)CCc1c(O)c2ccccc2oc1=O [Compound 20]	
	3.702	O=C(O)Cc1cccc2c(=O)cc(-c3ccccc3)oc12 [Compound 21]	inhibition at 100 µM (CD4): > 20%
16.98	3.311	O=C(O)Cc1cc(=O)oc2cc(O)ccc12 [Compound 10]	
	3.920	O=C(O)Cc1cccc2c(=O)cc(Cc3ccccc3)oc12 [Compound 24]	
15.80	3.273	CC(=O)/C=C(\c1ccccc1)c1c(O)c2ccccc2oc1=O [Compound 15]	
5.27	2.745	O=c1oc2cc(O)ccc2c2c1CCCC2 [Compound 12]	
	3.809	Cc1ccc(-c2cc(=O)c3cccc(CC(=O)O)c3o2)cc1 [Compound 22]	
6.48	2.841	Cc1cc(=O)c2c(o1)-c1c(cc(O)c(O)c1C(=O)O)OC2 [Compound 30]	
19.76	3.391	CCC(=O)c1c(O)c2ccccc2oc1=O [Compound 16]	
	3.690	O=C(O)CCc1cccc2c(=O)cc(-c3ccccc3)oc12 [Compound 23]	
11.80	3.126	CCC(=O)c1cc2ccc(O)cc2oc1=O [Compound 13]	
8.87	2.988	CC(=O)c1c(O)c2ccccc2oc1=O [Compound 7]	
